Assay results: patent publication US7560484B2 (priority 2000, dated 2009)

Assays:
[1] = tested on: influenza HA vaccine (influenza virus A/PR/8/34); set-up: species or system BALB/c mice; settings: mouse, in vivo, po
measles-rubella vaccine = format: in vivo, mice; settings: blood; vaccine nasal twice at 3-week intervals; adjuvant oral before and after first inoculation
Mycoplasma = format: in vivo, mice
influenza HA vaccine = settings: mouse, in vivo
[2] = tested on: pertussis-diphtheria-tetanus combined vaccine; set-up: species or system mice; settings: mouse, in vivo, po
rotavirus vaccine = format: in vivo, mice; settings: blood

For CCCCC[C@H](O)[C@H](O)/C=C/[C@H](O)CCCCCCCC(=O)O [9R,12R,13S-trihydroxy-10E-octadecenoic acid], the “titer of anti-influenza virus IgA antibody in nasal irrigation liquids” value [1] was “strongly enhanced” and the “titer of anti-influenza virus IgG1 antibody in nasal irrigation liquids” value [1] was “strongly enhanced”.

With CCCCC[C@H](O)[C@H](O)/C=C/[C@@H](O)CCCCCCCC(=O)O [9S,12R,13S-trihydroxy-10E-octadecenoic acid] the “titer of anti-influenza virus IgA antibody in nasal irrigation liquids” value [1] was “strongly enhanced” and the “titer of anti-influenza virus IgG1 antibody in nasal irrigation liquids” value [1] was “strongly enhanced”.

With CCCCC[C@H](O)[C@@H](O)/C=C/[C@@H](O)CCCCCCCC(=O)O [9S,12S,13S-trihydroxy-10E-octadecenoic acid] the “ELISA titer of antibody produced for measles” value (measles-rubella vaccine) was 0.30, the “ELISA titer of antibody produced for rubella” value (measles-rubella vaccine) was 0.29 and the “mice with lesions associated with Mycoplasma infection” value (Mycoplasma; mouse, in vivo, po) was 3 of 10. The “average number of lesions” value (Mycoplasma; vaccine intranasal three times at 2-week intervals, adjuvant oral before and after first inoculation) was 178, the “titer of anti-influenza vaccine IgE antibody in the bronchoalveolar irrigation liquid” value (influenza HA vaccine) was “significantly decreased” and the “level of anti-DT-IgA antibody in the nasal irrigation liquid” value [2] was 11 ELISA units. For the same compound, the “level of anti-PT-IgA antibody in the nasal irrigation liquid” value [2] was 14 ELISA units, the “level of anti-TT-IgA antibody in the nasal irrigation liquid” value [2] was 11 ELISA units and the “level of anti-diphtheria toxoid (DT)-IgG antibody in the blood” value [2] was 70 ELISA units. The “level of anti-pertussis toxin (PT)-IgG antibody in the blood” value [2] was 442 ELISA units, the “level of anti-tetanus toxoid (TT)-IgG antibody in the blood” value [2] was 75 ELISA units and the “titer of anti-influenza virus IgA antibody in nasal irrigation liquids” value [1] was “strongly enhanced”. For the same compound, the “titer of anti-influenza virus IgA antibody in the sera” value [1] was “significantly increased”, the “titer of anti-influenza virus IgG1 antibody in nasal irrigation liquids” value [1] was “strongly enhanced” and the “titer of anti-influenza virus IgG1 antibody in the sera” value [1] was “significantly increased”.

CCCCC[C@H](O)[C@@H](O)/C=C/[C@@H](O)CCCCCCCC(=O)OC [methyl ester derivative, methyl 9S,12S,13S-trihydroxy-10E-octadecenoate] was tested, and the “ELISA titer of antibody produced, vaccine inoculated orally” value (rotavirus vaccine; rotavirus vaccine inoculated orally) was 0.27 and the “ELISA titer of antibody produced, nasal vaccine drop” value (rotavirus vaccine; rotavirus vaccine nasal twice at 3-week intervals, adjuvant oral before and after first inoculation) was 0.38.
